Data from patent publication US9624214B2, “Amino-substituted imidazo[1,2-a]pyridinecarboxamides and their use” (BAYER PHARMA AKTIENGESELLSCHAFT, priority 2012, dated 2017).
Where a name gives a salt, the structure may show the parent alone.

molecular target: T1, recombinant guanylate cyclase reporter cell line (Rattus norvegicus, UniProt P19686+P20595); assay: B-2. Action on recombinant guanylate cyclase reporter cell line; assay type: cell-based; details: MEC = minimal effective concentration; in some cases mean values from individual determinations
T1 construct: expressed in transfected cells
T1 sequence (P20595 1-619): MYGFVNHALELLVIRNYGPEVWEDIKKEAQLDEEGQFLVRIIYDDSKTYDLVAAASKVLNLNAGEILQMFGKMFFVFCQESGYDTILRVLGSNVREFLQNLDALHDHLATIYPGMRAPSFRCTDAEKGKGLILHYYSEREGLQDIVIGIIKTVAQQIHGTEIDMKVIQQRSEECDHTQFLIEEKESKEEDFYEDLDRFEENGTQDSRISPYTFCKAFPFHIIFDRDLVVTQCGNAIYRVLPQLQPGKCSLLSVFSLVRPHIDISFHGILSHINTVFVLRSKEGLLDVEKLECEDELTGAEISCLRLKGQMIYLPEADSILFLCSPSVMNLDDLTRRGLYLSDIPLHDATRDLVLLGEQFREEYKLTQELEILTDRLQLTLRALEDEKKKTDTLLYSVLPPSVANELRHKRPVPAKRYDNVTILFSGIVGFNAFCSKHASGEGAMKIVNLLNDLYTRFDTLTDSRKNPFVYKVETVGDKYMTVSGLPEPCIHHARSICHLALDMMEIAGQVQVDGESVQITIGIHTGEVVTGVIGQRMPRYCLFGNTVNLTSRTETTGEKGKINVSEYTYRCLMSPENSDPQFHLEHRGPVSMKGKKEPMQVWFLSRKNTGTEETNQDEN
T1 sequence (P19686 1-690): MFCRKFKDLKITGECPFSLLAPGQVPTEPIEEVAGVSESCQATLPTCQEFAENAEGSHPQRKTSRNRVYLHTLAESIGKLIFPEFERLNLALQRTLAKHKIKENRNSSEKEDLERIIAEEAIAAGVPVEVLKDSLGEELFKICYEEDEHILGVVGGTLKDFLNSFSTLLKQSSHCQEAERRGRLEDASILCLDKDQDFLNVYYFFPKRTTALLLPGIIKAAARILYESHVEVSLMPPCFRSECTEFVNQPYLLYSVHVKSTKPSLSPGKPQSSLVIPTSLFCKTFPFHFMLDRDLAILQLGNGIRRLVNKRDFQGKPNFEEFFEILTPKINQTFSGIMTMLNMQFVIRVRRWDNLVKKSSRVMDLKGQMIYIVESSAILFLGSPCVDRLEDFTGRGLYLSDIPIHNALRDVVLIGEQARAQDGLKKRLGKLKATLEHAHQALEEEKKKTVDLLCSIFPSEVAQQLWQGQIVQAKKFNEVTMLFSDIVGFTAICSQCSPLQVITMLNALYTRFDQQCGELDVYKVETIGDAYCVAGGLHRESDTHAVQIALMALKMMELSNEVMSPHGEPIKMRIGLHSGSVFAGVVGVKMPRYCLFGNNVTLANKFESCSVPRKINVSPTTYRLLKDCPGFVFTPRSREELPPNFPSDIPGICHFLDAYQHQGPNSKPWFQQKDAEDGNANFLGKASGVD
Procedure, shortened: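 Rat recombinant guanylate cyclase reporter cell line measures cellular activity. Value reported as MEC (minimal effective concentration), sometimes averaged over individual determinations.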

SMILES	MEC [µM]
Cc1nc2c(OCc3c(F)cccc3F)cc(Cl)cn2c1C(=O)NCCC(C)(C)N [Example 104, N-(3-Amino-3-methylbutyl)-6-chloro-8-[(2,6-difluorobenzyl)oxy]-2-methylimidazo[1,2-a]-pyridine-3-carboxamide]	0.30
Cc1nc2c(OCc3c(F)cccc3F)cccn2c1C(=O)NC1CCNc2ccc(F)cc21 (single isomer, unassigned; ent-8) [Example 106, ent-8-[(2,6-difluorobenzyl)oxy]-N-(6-fluoro-1,2,3,4-tetrahydroquinolin-4-yl)-2-methylimidazo[1,2-a] pyridine-3-carboxamide]	0.03
CC[C@@H](N)CNC(=O)c1c(C)nc2c(OCc3c(F)cccc3F)cc(Cl)cn12 [Example 35, ent-N-[(2R)-2-aminobutyl]-6-chloro-8-[(2,6-difluorobenzyl)oxy]-2-methylimidazo[1,2-a]-pyridine-3-carboxamide]	1.00
Cc1nc2c(OCc3c(F)cccc3F)cccn2c1C(=O)NC(CN1CCOCC1)c1ccccc1 (racemic) [Example 134, rac-8-[(2,6-difluorobenzyl)oxy]-2-methyl-N-[2-(morpholin-4-yl)-1-phenylethyl]imidazo[1,2-a] - pyridine-3-carboxamide]	3.00
Cc1nc2c(OCc3c(F)cccc3F)cccn2c1C(=O)NCC(C)N (racemic) [Example 34, rac-N-(2-aminopropyl)-8-[(2,6-difluorobenzyl)-oxy]-2-methylimidazo[1,2-a]pyridine-3-carboxamide dihydrochloride]	1.00
Cc1nc2c(OCc3c(F)cccc3F)cc(Cl)cn2c1C(=O)NCCN [Example 36, N-(2-aminoethyl)-6-chloro-8-[(2,6-difluorobenzyl)oxy]-2-methylimidazo[1,2-a]-pyridine-3-carboxamide]	1.00
Cc1nc2c(OCc3c(F)cccc3F)cccn2c1C(=O)NCCN(C(C)C)C(C)C [Example 88, 8-[(2,6-difluorobenzyl)oxy]-N-[2-(diisopropyl-amino)ethyl]-2-methylimidazo[1,2-a]pyridine-3-carboxamide]	1.00
Cc1nc2c(OCc3c(F)cccc3F)cccn2c1C(=O)NCC(N)COC(C)C (racemic) [Example 205, rac-N-(2-Amino-3-isopropoxypropyl)-8-[(2,6-difluorobenzyl)oxy]-2-methylimidazo[1,2-a]-pyridine-3-carboxamide]	0.30
Cc1nc2c(OCc3c(F)cccc3F)cccn2c1C(=O)NC(CN)COc1ccc(F)cc1 (racemic) [Example 58, rac-N-[1-amino-3-(4-fluorophenoxy)propan-2-yl]-8-[(2,6-difluorobenzyl)oxy]-2-methylimidazo[1,2-a]pyridine-3-carboxamide]	1.00
Cc1nc2c(OCc3c(F)cccc3F)cccn2c1C(=O)NC(CN)c1ccc(Cl)cc1 (single isomer, unassigned; enantiomer b) [Example 15, ent-N-[2-Amino-1-(4-chlorophenyl)ethyl]-8-[(2,6-difluorobenzyl)oxy]-2-methylimidazo[1,2-a]-pyridine-3-carboxamide (Enantiomer B)]	0.53
Cc1nc2c(OCc3c(F)cccc3F)cccn2c1C(=O)NCCNCC(F)F [Example 169, 8-[(2,6-difluorobenzyl)oxy]-N-{2-[(2,2-difluoroethyl)amino]ethyl}-2-methylimidazo[1,2-a]pyridine-3-carboxamide]	1.65
Cc1nc2c(OCc3c(F)cccc3F)cccn2c1C(=O)NC1CNc2ccccc2C1 (single isomer, unassigned; ent-8) [Example 81, ent-8-[(2,6-Difluorobenzyl)oxy]-2-methyl-N-(1,2,3,4-tetrahydroquinolin-3-yl)imidazo[1,2-a]-pyridine-3-carboxamide]	1.00
Cc1nc2c(OCc3c(F)cccc3F)cccn2c1C(=O)N[C@H]1CCNC1 [Example 61, 8-[(2,6-Difluorobenzyl)oxy]-2-methyl-N-[(3S)-pyrrolidin-3-yl]imidazo[1,2-a]pyridine-3-carboxamide]	3.00
Cc1nc2c(OCc3c(F)cccc3F)cccn2c1C(=O)NCC(C(C)C)N(C)C (single isomer, unassigned; ent-8) [Example 188, ent-8-[(2,6-Difluorobenzyl)oxy]-N-[2-(dimethylamino)-3-methylbutyl]-2-methylimidazo[1,2-a]-pyridine-3-carboxamide]	1.00

Results, then the compound that gave them:

MEC [µM]	SMILES
1.00	Cc1nc2c(OCc3c(F)cccc3F)cccn2c1C(=O)NCC(N)C(C)C (single isomer, unassigned) [Example 228, ent-N-(2-Amino-3-methylbutyl)-8-[(2,6-difluorobenzyl)oxy]-2-methylimidazo[1,2-a]pyridine-3-carboxamide]
0.10	Cc1cc(OCc2c(F)cccc2F)c2nc(C)c(C(=O)NCC(C)(N)C3CC3)n2c1 (single isomer, unassigned; enantiomer b) [Example 261, ent-N-(2-Amino-2-cyclopropylpropyl)-8-[(2,6-difluorobenzyl)oxy]-2,6-dimethylimidazo[1,2-a]-pyridine-3-carboxamide (Enantiomer B)]
0.30	Cc1nc2c(OCc3c(F)cccc3F)cccn2c1C(=O)NC(CNCC(F)(F)F)c1ccc(F)c(F)c1 (single isomer, unassigned; ent-8) [Example 222, ent-8-[(2,6-Difluorobenzyl)oxy]-N-{1-(3,4-difluorophenyl)-2-[(2,2,2-trifluoroethyl)amino]ethyl}-2-methylimidazo[1,2-a]pyridine-3-carboxamide]
0.10	CCCC(C)(N)CNC(=O)c1c(C)nc2c(OCc3c(F)cccc3F)cc(C)cn12 (racemic) [Example 232, rac-N-(2-Amino-2-methylpentyl)-8-[(2,6-difluorobenzyl)oxy]-2,6-dimethylimidazo[1,2-a]pyridine-3-carboxamide]
0.30	Cc1cc(OCc2c(F)cccc2F)c2nc(C)c(C(=O)NCC(N)C(C)C)n2c1 (single isomer, unassigned) [Example 224, ent-N-(2-Amino-3-methylbutyl)-8-[(2,6-difluorobenzyl)oxy]-2,6-dimethylimidazo[1,2-a]pyridine-3-carboxamide]
0.30	COCC(CN)NC(=O)c1c(C)nc2c(OCc3c(F)cccc3F)cc(C)cn12 (single isomer, unassigned) [Example 210, ent-N-(1-amino-3-methoxypropan-2-yl)-8-[(2,6-difluorobenzyl)oxy]-2,6-dimethylimidazo[1,2-a]-pyridine-3-carboxamide Trifluoroacetate]
10.0	Cc1cc(OCc2c(F)cccc2F)c2nc(C)c(C(=O)NC(CN)c3cnn(C)c3)n2c1 (racemic) [Example 387, rac-N-[2-amino-1-(1-methyl-1H-pyrazol-4-yl)ethyl]-8-[(2,6-difluorobenzyl)oxy]-2,6-dimethylimidazo[1,2-a]pyridine-3-carboxamide]
0.30	CCCC(C)(N)CNC(=O)c1c(C)nc2c(OCc3c(F)cccc3F)cc(CC)cn12 (stereo not drawn) [Example 323, ent-N-(2-amino-2-methylpentyl)-8-[(2,6-difluorobenzyl)oxy]-6-ethyl-2-methylimidazo[1,2-a]pyridine-3-carboxamide]
1.00	CCCC(C)(N)CNC(=O)c1c(C)nc2c(OCc3c(F)cccc3F)c(F)ccn12 (racemic) [Example 277, rac-N-(2-Amino-2-methylpentyl)-8-[(2,6-difluorobenzyl)oxy]-7-fluoro-2-methylimidazo[1,2-a]-pyridine-3-carboxamide]
0.10	CSCCC(N)CNC(=O)c1c(C)nc2c(OCc3c(F)cccc3F)cc(C)cn12 (racemic) [Example 412, rac-N-[2-amino-4-(methylsulfanyl)butyl]-8-[(2,6-difluorobenzyl)oxy]-2,6-dimethylimidazo[1,2-a]pyridine-3-carboxamide]
0.30	Cc1cc(OCc2c(F)cccc2F)c2nc(C)c(C(=O)NC3(C)CC3(C)N)n2c1 (racemic) [Example 320, rac-N-(2-amino-1,2-dimethylcyclopropyl)-8-[(2,6-difluorobenzyl)oxy]-2,6-dimethylimidazo[1,2-a]pyridine-3-carboxamide (Racemate)]
